Experiments:
[1] = test system: pregnant women with a history of spontaneous preterm birth; assay: Randomized, double-blind, placebo-controlled trial of vaginal progesterone gel on preterm birth; format: in vivo, human
Method: In light of the state of the art, a study was conducted to examine the effects of progesterone on preterm labor and premature birth in women with a history of a previous preterm birth. […] The selection, categorization, and breakdown of the two groups is outlined in the flow chart of FIG. 2. The study was a prospective, randomized, placebo-controlled, double-blind, multicenter trial in pregnant subjects at high risk of spontaneous preterm delivery. The study participants were screened from 16 0/7 and 22 6/7 weeks gestational age. Subjects were randomized to drug or placebo from 18 0/7 to 22 6/7 weeks.
(§1) Subjects meeting the study criteria were enrolled by the investigator between 18 0/7 and 22 6/7 weeks and received identically packaged, sequentially numbered progesterone or placebo vaginal gel in a 1:1 ratio. A SAS (SAS Institute Inc., Cary, N.C., USA) procedure for variable block size was used to generate a randomization schedule stratified by study site and by inclusion criteria (prior preterm birth or short cervix). Quintiles, Inc. (Kansas City, Mo., USA) generated the randomization sequences, which were confidentially provided to the packaging company. Treatment allocation was concealed by an identical packaging and labelling process performed by Aptuit, Inc. (Mount Laurel, N.J., USA). The study patients, obstetric care providers, study investigators, study coordinators, and study monitors were blind to the exposure status (progesterone or placebo) of all study patients.
Subjects were randomized in a 1:1 ratio to receive PROCHIEVE® 8% (vaginally administered 90 mg natural progesterone gel) or placebo vaginal gel. All women performed self-dosing on a daily basis of their assigned study medication, either PROCHEIVE® (progesterone) or placebo.
Statistical analysis was based on the intent-to-treat principle.
Patients who were currently or previously enrolled in another investigational study within 1 month prior to screening for the present study were not included in the trial. Patients were also restricted from participation in the trial if the present pregnancy was complicated by a major fetal anomaly or a known chromosome disorder, or was a multifetal gestation. Patients with a cervical cerclage in place, or those intending to have one placed during the current pregnancy, were excluded from study participation, as were those with signs of preterm rupture of membranes, vaginal bleeding, amnionitis, or preterm labor at enrollment.
The study drug was packaged and labelled according to the 1:1 randomization scheme provided by Quintiles, Inc (Kansas City, Mo., USA). A SAS (SAS Institute Inc., Cary, N.C., USA) procedure for variable block size was used to generate the randomization schedule stratified by study site. […] The study drug (Prochieve® 8% progesterone gel) and placebo (Replens®) were provided by Columbia Laboratories, Inc. (Livingston, N.J., USA). Patients were instructed to self-administer the full applicator of vaginal gel at approximately the same time daily, preferably in the morning. Patients received a 2-week supply of the allocated treatment at the time of randomization, and at every 2-week study visit thereafter. All drug supplies were to be brought in at each visit at all study centers, and compliance with the study medication was determined from returned empty wrappers and unused wrappers. Percent compliance was assessed as total treatment duration compliance: (total applicators used/total dosing days)×100. Total dosing days was defined as the interval from enrollment to either the date of preterm premature rupture of membranes, the date of preterm birth without accompanying ruptured membranes, or 37 0/7 weeks' gestation.
The occurrence of adverse events was queried at each 2-week study visit at all centers by asking if the patient had any complaints or problems. Subjects received an extra 1-week drug supply when treatment was initiated in case they could not make the next regularly scheduled appointment.

[2] = test system: pregnant women with a short cervix; assay: Randomized trial, analysis of women with a shortened cervix in the midtrimester; format: in vivo, human
Method: The study further included women without a history of preterm birth and having a short cervix at the time of enrollment. […] The lowest quartile (≦3.2 cm) was combined with the short cervix only patients and subdivided sequentially and the primary and secondary outcomes for women with cervical lengths of ≦3.0 cm and <2.8 cm at the time of enrollment were analyzed. There were an insufficient number of patients with even shorter cervical lengths available for further analysis. For the purposes of the study, the criteria for short cervix was set at less than 2.8 cm.
The study included women with a documented history of spontaneous preterm birth (<35 weeks) in a singleton pregnancy in the immediate preceding parity regardless of cervical length, and women without a history of preterm birth but with midtrimester cervical shortening (≦2.5 cm) in the current pregnancy were offered enrollment in the study at 18 0/7-22 6/7 weeks of gestation. Recruitment began in April 2004 and the last patient delivered Jan. 8, 2007.
Therefore, women were excluded if any of the following conditions were present: age <18 or >45 years; multifetal gestation; history of an adverse reaction to progesterone or any component present in the treatment medication; treatment with progesterone within 4 weeks preceding enrollment; or current treatment for a seizure disorder, psychiatric disorder, or chronic hypertension. […] Patients who were currently or previously enrolled in another investigational study within one month prior to randomization were not included.
Patients were also restricted from participation in the trial if the present pregnancy was complicated by a major fetal anomaly or a known chromosome disorder. Patients with a cervical cerclage in place, or those intending to have one placed during the current pregnancy, were excluded from the study, as were those with signs of preterm rupture of membranes, vaginal bleeding, amnionitis, or preterm labor at enrollment.
as §1, with “Women with a history of spontaneous preterm birth in the preceding pregnancy regardless of cervical length or women without a history of preterm birth but with midtrimester cervical shortening in the current pregnancy were screened by the investigator or study coordinator between 16 0/7 and 22 6/7 weeks of gestation. Prior history of spontaneous preterm birth was confirmed by evaluation of the patient's medical records before enrollment. Gestational age was based on the patient's last menstrual period and correlated with an ultrasound biometry algorithm. Each patient had at least one ultrasound examination before randomization to confirm gestational age and rule out major fetal anomalies, and a transvaginal scan to determine the length of the cervix. Subjects” for “Subjects”
(§2) Following randomization, daily treatment was initiated by the patient and continued until 37 0/7 weeks' gestational age, occurrence of preterm rupture of membranes, or delivery. Each patient was evaluated at 2-week intervals. All subjects had another transvaginal ultrasound to determine cervical length at 28 weeks of gestation.

[3] = test system: cervix length of pregnant women; assay: Cervical length by transvaginal ultrasound at baseline and at 28 weeks of gestation; format: in vivo, human; settings: baseline to 28 weeks gestation, all participants, 6-10 weeks of dosing
Method: as §2
Prior to beginning the study, baseline measurements of each of the participant's cervical length were taken and are summarized in FIG. 1. During the study, cervical length measurements were made by ultrasound at both baseline and later at 28 weeks after a period of 6-10 weeks of dosing. The mean cervix length of 3.7 cm was the same for both the treatment and placebo groups, and the range of cervical length for all participants was between 1.1 cm and 7.9 cm. At 28 weeks gestation, each participant's cervix was re-measured and the data was compared to the baseline data, and an unexpected and surprising finding was discovered.

[4] = test system: pregnant women at risk of preterm birth; settings: cited from earlier work
[5] = ITT, history of spontaneous preterm birth
[6] = neonates, history of spontaneous preterm birth
[7] = baseline cervical length ≦3.0 cm, total 58
[8] = cervical length <2.8 cm, versus placebo

CC(=O)[C@H]1CC[C@H]2[C@@H]3CCC4=CC(=O)CC[C@]4(C)[C@H]3CC[C@]12C [progesterone]
admissions for preterm labor [1, 5]: 25.6% | head circumference of the neonates [1, 5]: 32.3±3.34 cm | mean birth weight of the neonates [1, 5]: 2680±710 gm | mean gestational age at delivery [1, 5]: 36.6 weeks | rate of preterm birth at <37 0/7 weeks [1, 5]: 41.7% | rate of preterm birth at ≦28 0/7 weeks [1, 5]: 3.2% | rate of preterm birth at ≦35 0/7 weeks [1, 5]: 22.7% | rate of preterm rupture of membranes [1, 5]: 12.0% | rate of stillbirth/intrauterine fetal demise [1, 5]: 1.6% | rate of preterm birth at ≦32 0/7 weeks of gestation (primary outcome) ([1]; ITT, history of spontaneous preterm birth, 8% progesterone vaginal gel 90 mg once daily): 10.0% | 1-minute APGAR score, median ([1]; neonates): 8 | 5-minute APGAR score, median ([1]; neonates): 9 | occurrence of grade 3 or 4 intraventricular haemorrhage [1, 6]: 0.3% | occurrence of necrotizing enterocolitis [1, 6]: 1.0% | occurrence of newborn respiratory distress syndrome [1, 6]: 11.0% | rate of admission to a neonatal intensive care unit [1, 6]: 17.5% | number of days from admission to delivery ([1]; patients admitted for treatment of preterm labor): 30 days | mean gestational age at delivery, infant morbidity or mortality, or other maternal or neonatal outcome measure ([1]; versus placebo, in words): no difference | treatment emergent adverse events ([1]; versus placebo, in words): similar | frequency of preterm birth at ≦32 weeks ([1]; versus placebo, in words, history of spontaneous preterm birth): did not decrease | frequency of preterm birth at ≦32 weeks ([1]; versus placebo, in words, history of spontaneous preterm birth, listed as vaginal progesterone gel): does not effectively reduce | time to delivery (Kaplan-Meier curve) ([2]; baseline cervical length greater than 3.2 cm, versus placebo): no statistically significant difference | time to delivery (Kaplan-Meier curve) ([2]; baseline cervical length less than 2.8 cm, versus placebo): probability of not delivering over a longer gestation period | time to delivery (Kaplan-Meier curve) ([2]; baseline cervical length less than or equal to 3.0 cm, versus placebo): probability of not delivering over a longer gestation period | time to delivery (Kaplan-Meier curve) ([2]; baseline cervical length less than or equal to 3.2 cm, versus placebo): probability of not delivering over a longer gestation period | Births >32 Weeks, Number ([2]; baseline cervical length ≦2.8 cm, total 19): 19 | Births >32 Weeks, Number [2, 7]: 54 | Births ≦32 Weeks, Number [2, 7]: 4 | NICU admissions ([2]; cervical length <2.8 cm): 15.8% | fetal/infant deaths ([2]; cervical length <2.8 cm): none | length of NICU stay ([2]; cervical length <2.8 cm): 1.1 days | preterm deliveries at less than or equal to 28 weeks, number ([2]; cervical length <2.8 cm): no preterm deliveries | rate of neonatal respiratory distress syndrome ([2]; cervical length <2.8 cm): 5.3% | total neonatal hospital days ([2]; cervical length <2.8 cm): 5.8 days | rate of preterm birth at ≦32 weeks ([2]; cervical length <2.8 cm at enrollment, 19 on progesterone): 0% | reduction of the number of preterm delivery at less than 35 weeks [2, 8]: about half | reduction of the number of preterm delivery at less than or equal to 37 weeks [2, 8]: about half | delivering ≦32 weeks gestation ([2]; short cervix only population, no history of preterm birth, 4 patients on progesterone): 0 | mean decrease in cervix length [3]: 0.44 cm | occurrence of perinatal death ([4]; Dodd et al. meta-analysis of randomized trials, versus placebo): no statistically significant difference | frequency of recurrent preterm birth ([4]; O'Brien et al., high risk women selected by a history of spontaneous preterm birth, prophylactic vaginal gel): does not effectively reduce
